Measured values reported in paper PMC10934055, “α-Glucosidase Inhibitory Phytochemical Components of Chinese Endemic Plant Whitfordiodendron filipes var. tomentosum” (Plants, 2024).
Read-outs that look alike come from different tables or passages of the source.

How the values were obtained:
[1] = target: T1, α-Glucosidase (Saccharomyces cerevisiae, UniProt P53341); experiment: biochemical; conditions: for inhibition at 2 µg/mL / inhibition at 4 µg/mL / inhibition at 6 µg/mL / inhibition at 8 µg/mL / inhibition at 10 µg/mL: read-out: α-glucosidase inhibition rate;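 as to all read-outs here: yeast α-glucosidase premixed with inhibitor in phosphate buffer for 15 min at 37 °C, then a further 15 min reaction with p-NPG substrate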
T1 construct: purchased Sigma (Sigma-Aldrich) G5003
T1 sequence (P53341 whole entry): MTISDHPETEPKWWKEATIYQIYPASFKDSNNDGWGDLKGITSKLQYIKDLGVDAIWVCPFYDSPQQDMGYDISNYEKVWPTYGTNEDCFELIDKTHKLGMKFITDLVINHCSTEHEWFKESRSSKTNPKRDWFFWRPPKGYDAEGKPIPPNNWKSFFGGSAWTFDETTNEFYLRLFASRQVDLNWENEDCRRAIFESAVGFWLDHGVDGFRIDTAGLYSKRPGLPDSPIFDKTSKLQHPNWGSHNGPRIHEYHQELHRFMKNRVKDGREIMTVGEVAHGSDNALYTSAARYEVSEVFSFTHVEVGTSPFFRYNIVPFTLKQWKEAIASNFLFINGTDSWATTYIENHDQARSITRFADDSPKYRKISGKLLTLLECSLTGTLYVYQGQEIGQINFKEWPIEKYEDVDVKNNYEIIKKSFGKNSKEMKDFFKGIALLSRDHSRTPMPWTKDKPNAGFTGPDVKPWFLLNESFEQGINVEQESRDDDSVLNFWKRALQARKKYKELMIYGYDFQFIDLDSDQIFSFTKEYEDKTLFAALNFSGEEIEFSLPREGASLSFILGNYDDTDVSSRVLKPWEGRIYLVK

[2] = target: α-glucosidase; conditions: read-out: IC50 (α-glucosidase inhibitory activity), cited from earlier work
[3] = read-out: IC50 (α-glucosidase inhibitory bioassay), baker's yeast α-glucosidase, p-NPG, pH 6.86, 37 °C

In the case of `CC(=O)O[C@H]1CC[C@]2(C)[C@H]3CC=C4[C@@H]5CC(C)(C)CC[C@]5(C(=O)O)CC[C@@]4(C)[C@]3(C)CC[C@H]2C1(C)C` [Compound 1, 3-acetyloleanolic acid], the “α-glucosidase inhibitory activity (judgement in words)” value (shortened to “α-glucosidase inhibitory activity”) [1] is reported as “significant inhibitory activities”, the IC50 ([1]; baker's yeast α-glucosidase, p-NPG, pH 6.86, 37 °C, read-out: IC50 (α-glucosidase inhibitory bioassay)) is reported as 16.8 ± 0.23 µM and the inhibition at 2 µg/mL [1] is reported as 10.1%. It also gave an inhibition at 4 µg/mL [1] of 24.3%, an inhibition at 6 µg/mL [1] of 38.2% and an inhibition at 8 µg/mL [1] of 48.3%. The inhibition at 10 µg/mL [1] was 56.5% and the IC50 ([2]; compounds isolated from Coffea canephora) was 146.9 ± 1.2 µM.
In the case of `CC1(C)CC[C@]2(C(=O)O)CC[C@]3(C)C(=CC[C@@H]4[C@@]5(C)CC[C@H](O)C(C)(C)[C@@H]5CC[C@]43C)[C@@H]2C1` [Compound 2, oleanolic acid], the “α-glucosidase inhibitory activity” value [1] is reported as “significant inhibitory activities”, the inhibition at 4 µg/mL [1] is reported as 27.8% and the inhibition at 6 µg/mL [1] is reported as 39.9%. It also gave an inhibition at 10 µg/mL [1] of 61.5%.
For `CC(C)(O)[C@@H]1CC[C@]2(C)CC[C@]3(C)[C@H](CC[C@@H]4[C@@]5(C)CC[C@H](O)C(C)(C)[C@@H]5CC[C@]43C)[C@@H]12` [Compound 3, monogynol A], the “α-glucosidase inhibitory activity” value [1] was “inactive”, the inhibition at 2 µg/mL ([1]; concentration 2.0 μg·mL-1) was 2.2% and the inhibition at 4 µg/mL ([1]; concentration 4.0 μg·mL-1) was 3.1%. For the same molecule, the inhibition at 6 µg/mL ([1]; concentration 6.0 μg·mL-1) was 3.4%, the inhibition at 8 µg/mL ([1]; concentration 8.0 μg·mL-1) was 3.4% and the inhibition at 10 µg/mL ([1]; concentration 10.0 μg·mL-1) was 4.3%.
For `C=C(C)[C@@H]1CC[C@]2(C)CC[C@]3(C)[C@H](CC[C@@H]4[C@@]5(C)CC[C@H](O)C(C)(C)[C@@H]5CC[C@]43C)[C@@H]12` [Compound 4, lupeol], the IC50 [1] was 19.2 ± 0.17 µM, the “α-glucosidase inhibitory activity” value [1] was “significant inhibitory activities” and the inhibition at 2 µg/mL ([1]; concentration 2.0 μg·mL-1) was 12.5%. It also gave an inhibition at 4 µg/mL ([1]; concentration 4.0 μg·mL-1) of 25.1%, an inhibition at 6 µg/mL ([1]; concentration 6.0 μg·mL-1) of 38.6% and an inhibition at 8 µg/mL ([1]; concentration 8.0 μg·mL-1) of 49.2%. The inhibition at 10 µg/mL ([1]; concentration 10.0 μg·mL-1) was 58.4% and the IC50 ([2]; compound isolated from Sabia parviflora) was 452 ± 5.3 µM.
For `CC(C)(O)[C@@H]1CC[C@]2(C)CC[C@]3(C)[C@H](CC[C@@H]4[C@@]5(C)CCC(=O)C(C)(C)[C@@H]5CC[C@]43C)[C@@H]12` [Compound 5, 20-hydroxy-lupan-3-one], the “α-glucosidase inhibitory activity” value [1] was “inactive”, the inhibition at 2 µg/mL ([1]; concentration 2.0 μg·mL-1) was 7.2% and the inhibition at 4 µg/mL ([1]; concentration 4.0 μg·mL-1) was 9.3%. The inhibition at 6 µg/mL ([1]; concentration 6.0 μg·mL-1) was 11%, the inhibition at 8 µg/mL ([1]; concentration 8.0 μg·mL-1) was 13.4% and the inhibition at 10 µg/mL ([1]; concentration 10.0 μg·mL-1) was 15.8%. It also gave an IC50 [1, 3] of under 100 µM.
With `C=C(C)[C@@H]1CC[C@]2(C(=O)O)CC[C@]3(C)[C@H](CC[C@@H]4[C@@]5(C)CCC(=O)C(C)(C)[C@@H]5CC[C@]43C)[C@@H]12` [Compound 6, betulonic acid] the IC50 [1] was 17.2 ± 0.27 µM, the “α-glucosidase inhibitory activity” value [1] was “significant inhibitory activities” and the inhibition at 2 µg/mL ([1]; concentration 2.0 μg·mL-1) was 10.1%. It also gave an inhibition at 4 µg/mL ([1]; concentration 4.0 μg·mL-1) of 24.3%, an inhibition at 6 µg/mL ([1]; concentration 6.0 μg·mL-1) of 38.2% and an inhibition at 8 µg/mL ([1]; concentration 8.0 μg·mL-1) of 51.7%. The inhibition at 10 µg/mL ([1]; concentration 10.0 μg·mL-1) was 60.5% and the IC50 ([2]; compound isolated from Buddleja saligna) was 60.1 µM.
For `CC(=O)O[C@H]1CC[C@]2(C)[C@H]3CC[C@@H]4[C@@H]([C@@](C)(O)CCC=C(C)C)CC[C@@]4(C)[C@]3(C)CC[C@H]2C1(C)C` [Compound 8, dammar-24-ene-3β-acetoxy-20S-ol], the inhibition at 2 µg/mL ([1]; concentration 2.0 μg·mL-1) was 3.7%, the inhibition at 4 µg/mL ([1]; concentration 4.0 μg·mL-1) was 6.2% and the inhibition at 6 µg/mL ([1]; concentration 6.0 μg·mL-1) was 8.1%. It also gave an inhibition at 8 µg/mL ([1]; concentration 8.0 μg·mL-1) of 10.2%, an inhibition at 10 µg/mL ([1]; concentration 10.0 μg·mL-1) of 11.1% and an IC50 [1, 3] of under 100 µM.
With `CCC(CC[C@@H](C)[C@H]1CC[C@H]2[C@@H]3CCC4=CC(=O)CC[C@]4(C)[C@H]3CC[C@]12C)C(C)C` (stereo partly drawn) [Compound 9, (20R)-24-ethylcholest-4-en-3-one] the IC50 [1, 3] was under 100 µM, the inhibition at 2 µg/mL [1] was 6.1% and the inhibition at 4 µg/mL [1] was 8.3%. For the same molecule, the inhibition at 6 µg/mL [1] was 12.2%, the inhibition at 8 µg/mL [1] was 15.6% and the inhibition at 10 µg/mL [1] was 17.5%.
Molecule `CC[C@H](/C=C/[C@@H](C)[C@H]1CC[C@H]2[C@@H]3CC=C4C[C@@H](O)CC[C@]4(C)[C@H]3CC[C@]12C)C(C)C` [Compound 10, stigmasterol] has an IC50 [1, 3] of under 100 µM, an inhibition at 2 µg/mL [1] of 2.4% and an inhibition at 4 µg/mL [1] of 4.3%. It also gave an inhibition at 6 µg/mL [1] of 7.1%, an inhibition at 8 µg/mL [1] of 9.6% and an inhibition at 10 µg/mL [1] of 10.1%.
Work on `C[C@H]1O[C@H](O[C@H]2[C@H](O)[C@@H](O)[C@@H](O[C@H]3[C@H](O)[C@@H](O)C(O)O[C@@H]3CO)O[C@@H]2CO)[C@H](O)[C@@H](O)[C@@H]1N[C@H]1C=C(CO)[C@@H](O)[C@H](O)[C@H]1O` (stereo partly shown) [acarbose, reference compound] yielded an inhibition at 2 µg/mL [1] of 11.1%, an inhibition at 4 µg/mL [1] of 25.3% and an inhibition at 6 µg/mL [1] of 37.9%. It also gave an inhibition at 8 µg/mL [1] of 52.4% and an inhibition at 10 µg/mL [1] of 65.7%.
